According to ChEMBL document CHEMBL1201862, “PubChem BioAssay data set” (2004):
Active and inactive are the calls of the source.

Legend:
[1] = biological target: DNA dC->dU-editing enzyme APOBEC-3G (Homo sapiens, UniProt Q9HC16); assay type: functional;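 further: Dose-response counterscreen measuring inhibition of APOBEC3G DNA deaminase activity, run while confirming APOBEC3A inhibitors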
[2] = biological target: DNA dC->dU-editing enzyme APOBEC-3A (Homo sapiens, UniProt P31941); test: Dose Response confirmation of small molecule APOBEC3A DNA Deaminase Inhibitors via a fluorescence-based single-stranded DNA deaminase assay. [Related pubchem assays (depositor defined):AID493011, AID493024]; assay type: functional
Chain of DNA dC->dU-editing enzyme APOBEC-3A (P31941 whole entry): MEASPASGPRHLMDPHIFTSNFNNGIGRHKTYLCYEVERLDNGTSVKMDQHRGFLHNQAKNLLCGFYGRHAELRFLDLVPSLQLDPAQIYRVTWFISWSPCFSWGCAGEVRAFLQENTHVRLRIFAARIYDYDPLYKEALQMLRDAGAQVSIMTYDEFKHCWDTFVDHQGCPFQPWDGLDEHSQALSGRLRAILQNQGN

[3] = biological target: Polyadenylate-binding protein 1 (Homo sapiens, UniProt P11940); test: blockers of PABP interaction with poly(A) – biochemical, fluorescence polarization, […] (AID 2014)
Chain of Polyadenylate-binding protein 1 (P11940 whole entry): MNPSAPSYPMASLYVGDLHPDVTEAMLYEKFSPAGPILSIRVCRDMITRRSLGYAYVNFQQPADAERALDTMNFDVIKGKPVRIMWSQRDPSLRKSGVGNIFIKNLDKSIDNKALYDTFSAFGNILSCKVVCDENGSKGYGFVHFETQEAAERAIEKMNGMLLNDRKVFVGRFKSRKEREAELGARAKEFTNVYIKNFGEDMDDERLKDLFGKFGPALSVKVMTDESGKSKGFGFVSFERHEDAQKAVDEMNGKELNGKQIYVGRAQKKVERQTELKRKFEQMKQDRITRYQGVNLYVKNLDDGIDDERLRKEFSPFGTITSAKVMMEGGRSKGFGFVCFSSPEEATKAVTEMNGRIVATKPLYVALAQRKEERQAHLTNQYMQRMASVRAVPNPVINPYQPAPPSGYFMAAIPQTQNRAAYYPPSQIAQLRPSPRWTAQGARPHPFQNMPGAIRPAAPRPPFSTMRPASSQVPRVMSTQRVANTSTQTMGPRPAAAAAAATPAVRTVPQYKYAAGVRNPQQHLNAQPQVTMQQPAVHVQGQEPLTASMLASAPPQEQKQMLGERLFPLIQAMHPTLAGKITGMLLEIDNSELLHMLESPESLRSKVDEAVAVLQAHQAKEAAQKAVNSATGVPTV

[4] = biological target: Eukaryotic translation initiation factor 4H (Homo sapiens, UniProt Q15056); test: eIF4H binding inhibition – biochemical, uHTS, fluorescence polarization, translation initiation inhibitor project, primary screen (AID 2012)
[5] = biological target: T1, Rac GTPase-activating protein 1 (Homo sapiens, UniProt Q9H0H5); test: blockers of MgcRacGAP-driven Rac1 GTP hydrolysis – biochemical, ADP Hunter fluorescence, primary and confirmatory, confirmation (AID 624330); assay type: functional
T1 sequence (Q9H0H5 whole entry): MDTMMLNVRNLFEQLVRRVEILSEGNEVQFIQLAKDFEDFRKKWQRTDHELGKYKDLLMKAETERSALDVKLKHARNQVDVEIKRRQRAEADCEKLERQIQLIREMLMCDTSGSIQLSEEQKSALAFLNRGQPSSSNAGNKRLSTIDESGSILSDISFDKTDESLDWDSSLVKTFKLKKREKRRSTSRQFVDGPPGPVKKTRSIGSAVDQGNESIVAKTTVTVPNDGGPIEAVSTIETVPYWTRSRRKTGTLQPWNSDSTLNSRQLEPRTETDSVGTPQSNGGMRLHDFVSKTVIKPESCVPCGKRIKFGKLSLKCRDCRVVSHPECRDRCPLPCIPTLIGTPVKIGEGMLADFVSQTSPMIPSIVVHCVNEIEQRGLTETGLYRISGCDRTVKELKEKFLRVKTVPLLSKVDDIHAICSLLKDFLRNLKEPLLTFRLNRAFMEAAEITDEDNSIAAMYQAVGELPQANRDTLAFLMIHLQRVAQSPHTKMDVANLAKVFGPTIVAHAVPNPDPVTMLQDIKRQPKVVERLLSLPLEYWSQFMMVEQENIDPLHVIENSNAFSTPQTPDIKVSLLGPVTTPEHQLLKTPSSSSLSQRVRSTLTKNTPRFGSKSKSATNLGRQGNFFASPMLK

[6] = biological target: FAD-linked sulfhydryl oxidase ALR (Homo sapiens, UniProt P55789); test: ALR-catalysed DTT oxidation blockers – biochemical, H2O2 detection, luminescence, cherry-pick, dose response (AID 493248)
Chain of FAD-linked sulfhydryl oxidase ALR (P55789 whole entry): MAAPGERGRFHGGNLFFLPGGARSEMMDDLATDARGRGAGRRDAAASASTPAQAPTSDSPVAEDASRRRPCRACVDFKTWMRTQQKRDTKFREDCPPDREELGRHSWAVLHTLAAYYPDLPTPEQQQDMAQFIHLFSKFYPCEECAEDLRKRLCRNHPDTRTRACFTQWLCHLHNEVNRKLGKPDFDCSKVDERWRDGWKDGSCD

[7] = HIV-1 Vif–A3G interaction blockers – biochemical, TR-FRET, GST-Vif 1-94, biotin-A3G peptide, dose response retest, primary screen (AID 1117319); assay type: functional;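 further: TR-FRET signal of purified GST-Vif binding a biotinylated A3G peptide; inhibitors lower the FRET signal by blocking Vif and A3G binding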
Estrogen receptor = biological target: T2, Estrogen receptor (Homo sapiens, UniProt P03372);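 further: potency for inhibiting coactivator peptide recruitment to the receptor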
T2 sequence (P03372 whole entry): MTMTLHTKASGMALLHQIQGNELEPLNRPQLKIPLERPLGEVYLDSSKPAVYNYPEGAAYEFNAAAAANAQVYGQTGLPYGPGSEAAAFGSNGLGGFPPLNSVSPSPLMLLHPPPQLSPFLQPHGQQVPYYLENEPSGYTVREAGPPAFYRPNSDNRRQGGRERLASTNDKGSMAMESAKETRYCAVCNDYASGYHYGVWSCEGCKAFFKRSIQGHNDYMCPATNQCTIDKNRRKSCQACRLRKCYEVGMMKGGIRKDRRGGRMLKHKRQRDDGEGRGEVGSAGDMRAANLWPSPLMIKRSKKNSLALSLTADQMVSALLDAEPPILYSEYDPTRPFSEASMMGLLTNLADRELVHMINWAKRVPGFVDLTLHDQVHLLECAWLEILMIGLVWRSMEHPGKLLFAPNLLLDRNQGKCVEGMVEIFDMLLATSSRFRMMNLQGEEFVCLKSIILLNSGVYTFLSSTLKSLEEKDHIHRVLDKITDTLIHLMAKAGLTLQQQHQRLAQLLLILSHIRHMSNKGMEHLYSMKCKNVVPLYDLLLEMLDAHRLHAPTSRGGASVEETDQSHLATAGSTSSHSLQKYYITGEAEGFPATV

Large T antigen = Large T antigen (Simian virus 40, UniProt P03070); assay type: functional, Betapolyomavirus macacae;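 further: Confirmatory-stage PubChem screen for compounds that inhibit SV40 T antigen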
Chain of Large T antigen (P03070 whole entry): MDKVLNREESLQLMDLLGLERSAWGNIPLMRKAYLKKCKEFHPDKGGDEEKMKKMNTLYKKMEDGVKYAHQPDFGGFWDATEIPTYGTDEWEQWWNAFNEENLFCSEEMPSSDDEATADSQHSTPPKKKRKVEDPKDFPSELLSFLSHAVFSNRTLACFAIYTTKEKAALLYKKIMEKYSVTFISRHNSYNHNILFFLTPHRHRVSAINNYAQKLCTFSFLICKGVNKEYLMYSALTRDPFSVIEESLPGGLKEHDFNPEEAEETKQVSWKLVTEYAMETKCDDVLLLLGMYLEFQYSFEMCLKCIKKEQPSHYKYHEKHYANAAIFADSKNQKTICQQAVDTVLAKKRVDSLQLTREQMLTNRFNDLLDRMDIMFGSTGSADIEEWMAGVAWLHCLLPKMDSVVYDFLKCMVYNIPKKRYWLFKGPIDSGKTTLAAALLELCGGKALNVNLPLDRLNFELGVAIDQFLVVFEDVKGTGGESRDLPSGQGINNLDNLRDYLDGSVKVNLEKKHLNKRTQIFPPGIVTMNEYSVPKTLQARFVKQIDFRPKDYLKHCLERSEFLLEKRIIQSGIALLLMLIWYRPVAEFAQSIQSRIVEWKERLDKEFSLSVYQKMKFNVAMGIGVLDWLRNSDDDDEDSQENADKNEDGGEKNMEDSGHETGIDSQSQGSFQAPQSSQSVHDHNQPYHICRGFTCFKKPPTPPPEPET

Aminopeptidase N = biological target: T3, Aminopeptidase N (Plasmodium falciparum FcB1/Columbia, UniProt O96935); test: malaria alanyl aminopeptidase activity blockers – biochemical, fluorogenic H-Leu-NHMec substrate, 1536-well (AID 1445); design: species or system Plasmodium falciparum 3D7, 3D7
T3 sequence (O96935 whole entry): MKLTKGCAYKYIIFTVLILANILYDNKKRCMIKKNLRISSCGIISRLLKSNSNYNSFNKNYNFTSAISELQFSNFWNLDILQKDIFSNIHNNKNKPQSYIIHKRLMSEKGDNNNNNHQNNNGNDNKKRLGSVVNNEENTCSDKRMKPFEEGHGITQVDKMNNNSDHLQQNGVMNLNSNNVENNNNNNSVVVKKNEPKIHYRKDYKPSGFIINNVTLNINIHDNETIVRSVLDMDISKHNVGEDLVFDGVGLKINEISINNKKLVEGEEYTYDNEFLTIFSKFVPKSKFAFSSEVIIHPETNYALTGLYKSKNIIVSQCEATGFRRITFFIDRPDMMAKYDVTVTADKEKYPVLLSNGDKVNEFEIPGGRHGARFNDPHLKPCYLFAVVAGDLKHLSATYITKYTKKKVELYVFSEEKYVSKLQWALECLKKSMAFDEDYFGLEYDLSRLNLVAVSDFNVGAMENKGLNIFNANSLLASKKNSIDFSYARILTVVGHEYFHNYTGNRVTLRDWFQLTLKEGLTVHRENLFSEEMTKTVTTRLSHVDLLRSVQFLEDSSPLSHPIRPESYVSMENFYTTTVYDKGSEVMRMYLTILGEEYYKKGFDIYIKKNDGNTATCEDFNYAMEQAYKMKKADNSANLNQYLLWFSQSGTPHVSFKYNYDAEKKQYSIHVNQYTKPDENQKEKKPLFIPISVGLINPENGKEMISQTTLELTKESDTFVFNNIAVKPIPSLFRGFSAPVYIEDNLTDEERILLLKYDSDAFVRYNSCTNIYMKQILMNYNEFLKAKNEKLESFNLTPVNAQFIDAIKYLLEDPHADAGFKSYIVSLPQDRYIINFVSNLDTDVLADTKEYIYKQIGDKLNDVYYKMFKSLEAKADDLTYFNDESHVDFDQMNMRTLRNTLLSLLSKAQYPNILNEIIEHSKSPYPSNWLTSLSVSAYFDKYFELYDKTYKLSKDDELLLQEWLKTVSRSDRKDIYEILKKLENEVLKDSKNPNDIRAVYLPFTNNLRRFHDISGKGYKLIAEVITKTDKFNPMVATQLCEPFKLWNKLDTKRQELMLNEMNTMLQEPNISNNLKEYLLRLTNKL

Prothrombin = Prothrombin (Homo sapiens, UniProt P00734); test: Thrombin 1536 HTS Dose Response Confirmation. [Related pubchem assays: 1046 (Thrombin 1536 HTS; hits were confirmed in this assay)]; assay type: functional
[8] = biological target: T4, Aryl hydrocarbon receptor (Homo sapiens, UniProt P35869); test: Luminescence-based cell-based high throughput dose response assay for activators of the Aryl Hydrocarbon Receptor (AHR). [Related pubchem assays: 2796 (Primary screen (AHR activators in singlicate)), 2845 (Confirmation screen (AHR activators in triplicate)), 434939 (Counterscreen (PXR activators in triplicate)), 2804 (Summary (AHR activators))]; assay type: ADME
T4 sequence (P35869 whole entry): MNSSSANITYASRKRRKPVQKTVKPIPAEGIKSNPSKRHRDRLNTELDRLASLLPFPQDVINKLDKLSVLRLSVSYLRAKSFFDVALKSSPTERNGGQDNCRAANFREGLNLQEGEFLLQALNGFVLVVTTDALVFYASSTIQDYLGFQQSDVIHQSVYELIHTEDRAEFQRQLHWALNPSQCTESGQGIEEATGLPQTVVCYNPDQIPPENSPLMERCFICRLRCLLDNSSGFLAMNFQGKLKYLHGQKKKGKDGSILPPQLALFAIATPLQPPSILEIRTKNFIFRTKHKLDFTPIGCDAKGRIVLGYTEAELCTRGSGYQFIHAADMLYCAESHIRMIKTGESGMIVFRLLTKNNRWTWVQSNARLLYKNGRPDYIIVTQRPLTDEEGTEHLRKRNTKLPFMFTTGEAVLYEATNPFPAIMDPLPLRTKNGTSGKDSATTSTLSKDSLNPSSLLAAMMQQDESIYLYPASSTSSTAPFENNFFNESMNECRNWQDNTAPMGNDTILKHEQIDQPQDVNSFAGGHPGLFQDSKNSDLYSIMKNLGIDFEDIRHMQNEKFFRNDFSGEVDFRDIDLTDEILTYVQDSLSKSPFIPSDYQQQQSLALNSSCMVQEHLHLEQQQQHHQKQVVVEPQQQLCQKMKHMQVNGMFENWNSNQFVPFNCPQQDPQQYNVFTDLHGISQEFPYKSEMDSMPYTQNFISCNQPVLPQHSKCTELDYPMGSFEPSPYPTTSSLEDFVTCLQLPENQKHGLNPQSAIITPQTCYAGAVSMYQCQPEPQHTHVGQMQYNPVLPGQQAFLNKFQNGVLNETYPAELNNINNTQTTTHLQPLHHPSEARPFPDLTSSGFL

Hexokinase HKDC1 = biological target: T5, Hexokinase HKDC1 (Homo sapiens, UniProt Q2TB90); test: inhibition of HKDC1 glucose phosphorylation – biochemical, W721R variant, dose response (AID 504729); assay type: functional
T5 sequence (Q2TB90 whole entry): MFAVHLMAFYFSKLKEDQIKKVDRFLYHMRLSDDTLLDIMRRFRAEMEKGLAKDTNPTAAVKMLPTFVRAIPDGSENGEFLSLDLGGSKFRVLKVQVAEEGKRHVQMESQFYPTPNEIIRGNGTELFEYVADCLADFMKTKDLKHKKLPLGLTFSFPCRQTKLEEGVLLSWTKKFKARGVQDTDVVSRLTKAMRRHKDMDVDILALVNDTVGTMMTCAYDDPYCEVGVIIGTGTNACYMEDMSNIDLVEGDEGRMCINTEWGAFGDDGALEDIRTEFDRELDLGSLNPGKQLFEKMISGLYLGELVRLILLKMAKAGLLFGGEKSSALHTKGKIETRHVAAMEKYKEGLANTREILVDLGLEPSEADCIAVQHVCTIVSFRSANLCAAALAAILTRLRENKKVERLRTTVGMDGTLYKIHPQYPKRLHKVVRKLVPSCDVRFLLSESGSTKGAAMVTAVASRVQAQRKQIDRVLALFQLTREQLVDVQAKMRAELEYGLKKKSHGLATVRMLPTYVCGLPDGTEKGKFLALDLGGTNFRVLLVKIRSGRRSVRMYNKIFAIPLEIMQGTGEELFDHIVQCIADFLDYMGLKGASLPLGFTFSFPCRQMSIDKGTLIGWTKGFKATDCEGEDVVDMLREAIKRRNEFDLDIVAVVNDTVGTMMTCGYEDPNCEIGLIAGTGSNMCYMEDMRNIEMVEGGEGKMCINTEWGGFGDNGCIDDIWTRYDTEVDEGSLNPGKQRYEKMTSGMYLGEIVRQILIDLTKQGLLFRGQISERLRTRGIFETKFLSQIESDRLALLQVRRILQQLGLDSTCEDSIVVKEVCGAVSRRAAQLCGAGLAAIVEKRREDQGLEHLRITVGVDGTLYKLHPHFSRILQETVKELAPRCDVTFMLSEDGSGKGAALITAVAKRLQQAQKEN

H9c2 = test: cells; assay type: functional, cell-based; conditions: Rattus norvegicus, H9c2, Myocardium
Nonstructural protein 1 = Nonstructural protein 1 (Influenza A virus, UniProt Q194T2); assay type: functional, Influenza A virus (A/California/07/2009(H1N1))
Chain of Nonstructural protein 1 (Q194T2 whole entry): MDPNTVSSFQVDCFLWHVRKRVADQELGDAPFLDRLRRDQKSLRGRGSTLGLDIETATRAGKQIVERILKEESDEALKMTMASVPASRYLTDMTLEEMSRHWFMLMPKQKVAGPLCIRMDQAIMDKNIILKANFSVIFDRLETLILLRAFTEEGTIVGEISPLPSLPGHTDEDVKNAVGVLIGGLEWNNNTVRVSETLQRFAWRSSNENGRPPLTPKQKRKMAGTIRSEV

[9] = fluconazole-exposed Candida albicans growth modulators – fluorescence, retest, confirmation (AID 2467); assay type: functional, cell-based
[10] = NIH-3T3 fibroblast cytotoxicity, dose response, cytotoxicity control, cell-based, fluorescence, Alamar Blue, secondary assay (AID 2327); assay type: functional;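 further: NIH-3T3 mouse fibroblasts cultured with fluconazole at 8 µg/mL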

Chain of DNA dC->dU-editing enzyme APOBEC-3G (Q9HC16 whole entry): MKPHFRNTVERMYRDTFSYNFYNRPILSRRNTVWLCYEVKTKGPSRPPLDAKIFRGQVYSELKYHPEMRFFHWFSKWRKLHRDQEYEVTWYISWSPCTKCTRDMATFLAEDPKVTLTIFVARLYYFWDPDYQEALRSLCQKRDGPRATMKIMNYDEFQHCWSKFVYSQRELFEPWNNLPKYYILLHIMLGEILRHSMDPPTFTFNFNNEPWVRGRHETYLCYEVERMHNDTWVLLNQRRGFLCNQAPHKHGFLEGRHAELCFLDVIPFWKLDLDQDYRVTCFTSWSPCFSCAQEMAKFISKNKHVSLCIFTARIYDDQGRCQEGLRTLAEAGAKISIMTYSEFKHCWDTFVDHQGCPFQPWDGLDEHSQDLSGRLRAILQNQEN

## COc1ccc(N(CC(=O)N2CCCCCC2)S(=O)(=O)c2ccccc2[N+](=O)[O-])c(OC)c1
[1]
  IC50: 4.83 µM (active)
[2]
  IC50: 5.63 µM (active)
[3]
  IC50: 11.9 µM (active)
[4]
  IC50: > 100 µM (inactive)

## CCN(CC)c1ccc(NC(=O)c2ccc(Br)o2)cc1
[5]
  IC50: 25.9 µM (active)
[6]
  AC50: 0.745 µM (active)
[7]
  IC50: > 100 µM (active)

## COc1cc(-c2nnc(-c3ccc(S(=O)(=O)c4ccccc4)cc3)o2)cc(OC)c1OC
Estrogen receptor
  IC50: > 50 µM (not active)

## O=C(Nc1nc2ccccc2s1)c1cc2c(s1)-c1ccccc1OC2
Estrogen receptor
  IC50: > 50 µM (not active)

## COc1cc(/C=C2\SC(=S)N(C(Cc3ccccc3)C(=O)O)C2=O)ccc1O (stereo unspecified)
Large T antigen
  IC50: 65 µM (active)
Aminopeptidase N
  IC50: 42.3 µM (active)

## CCC(=O)n1nc(-c2ccc(Cl)cc2)nc1SC
Prothrombin
  IC50: 7.14 µM (active)

## Nc1nncn1C(=O)CCc1ccccc1
Prothrombin
  IC50: 0.605 µM (active)

## COc1ccccc1NC(=O)C1C2CCCCC21 (stereo unspecified)
Prothrombin
  IC50: > 50 µM (not active)

## Cn1c(N)c(C(=O)Nc2ccccc2F)sc1=S
[8]
  EC50: 0.857 µM (active)

## C[n+]1cnn2c1SCC1(COC1)C2
[3]
  IC50: 4.59 µM (active)
[4]
  IC50: > 100 µM (inactive)

## CCCS(=O)(=O)N1CCC(C(=O)NCc2ccc(F)cc2)CC1
Aminopeptidase N
  IC50: 31.6 µM (active)

## COC(=O)C1CC(=O)c2ccsc2C1 (stereo unspecified)
Prothrombin
  IC50: > 50 µM (not active)

## COc1cc(/C=C2/C(=O)NN(c3ccc(Cl)c(Cl)c3)C2=O)cc([N+](=O)[O-])c1O
Large T antigen
  IC50: 12.5 µM (active)
[6]
  AC50: 0.409 µM (active)
Hexokinase HKDC1
  IC50: 32.5 µM (inactive)

## Cc1cc(C(F)F)n2ncc(C(=O)NCCc3ccc(Cl)cc3)c2n1
Hexokinase HKDC1
  IC50: 12.7 µM (active)

## CC(=O)n1cc(/C=N/NC(=O)c2sc(C)nc2C)c2ccccc21
[8]
  EC50: > 91.7 µM (not active)
H9c2
  IC50: > 79 µM (inactive)

## Cn1c(=O)c2c(nc(/C=C/c3cccc(Cl)c3)n2C)n(C)c1=O
[8]
  EC50: 3.34 µM (active)

## Oc1ccc(/C=N/N(c2ccccc2)c2ccccc2)c(O)c1O
Nonstructural protein 1
  IC50: 47.6 µM (active)
[9]
  EC50: > 38 µM (not active)
[10]
  EC50: > 160 µM (inactive)
[3]
  IC50: > 100 µM (inactive)
[4]
  IC50: 31.7 µM (active)
